Tests used:
[1] = target: T1, Alpha-1A adrenergic receptor (Homo sapiens) (UniProt P35348); details: Compound concentration 10.0 uM
T1 sequence (whole entry): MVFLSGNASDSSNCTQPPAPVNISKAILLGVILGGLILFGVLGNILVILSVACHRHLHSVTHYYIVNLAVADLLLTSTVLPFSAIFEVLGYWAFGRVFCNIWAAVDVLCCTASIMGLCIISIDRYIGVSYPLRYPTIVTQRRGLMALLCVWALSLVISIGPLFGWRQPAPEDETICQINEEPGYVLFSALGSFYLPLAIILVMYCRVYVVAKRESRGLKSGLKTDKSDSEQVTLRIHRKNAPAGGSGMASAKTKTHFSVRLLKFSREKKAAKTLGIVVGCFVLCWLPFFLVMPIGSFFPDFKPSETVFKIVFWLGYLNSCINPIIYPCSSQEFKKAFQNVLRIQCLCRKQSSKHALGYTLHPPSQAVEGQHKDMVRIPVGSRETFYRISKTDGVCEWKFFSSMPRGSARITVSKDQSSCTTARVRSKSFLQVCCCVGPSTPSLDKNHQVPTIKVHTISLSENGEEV

[2] = target: Hepatocyte growth factor receptor (Homo sapiens) (UniProt P08581); details: Compound concentration 1000.0 nM
[3] = target: T2, Tyrosine-protein kinase Tec (Homo sapiens) (UniProt P42680); details: Compound concentration 1000.0 nM
T2 sequence (whole entry): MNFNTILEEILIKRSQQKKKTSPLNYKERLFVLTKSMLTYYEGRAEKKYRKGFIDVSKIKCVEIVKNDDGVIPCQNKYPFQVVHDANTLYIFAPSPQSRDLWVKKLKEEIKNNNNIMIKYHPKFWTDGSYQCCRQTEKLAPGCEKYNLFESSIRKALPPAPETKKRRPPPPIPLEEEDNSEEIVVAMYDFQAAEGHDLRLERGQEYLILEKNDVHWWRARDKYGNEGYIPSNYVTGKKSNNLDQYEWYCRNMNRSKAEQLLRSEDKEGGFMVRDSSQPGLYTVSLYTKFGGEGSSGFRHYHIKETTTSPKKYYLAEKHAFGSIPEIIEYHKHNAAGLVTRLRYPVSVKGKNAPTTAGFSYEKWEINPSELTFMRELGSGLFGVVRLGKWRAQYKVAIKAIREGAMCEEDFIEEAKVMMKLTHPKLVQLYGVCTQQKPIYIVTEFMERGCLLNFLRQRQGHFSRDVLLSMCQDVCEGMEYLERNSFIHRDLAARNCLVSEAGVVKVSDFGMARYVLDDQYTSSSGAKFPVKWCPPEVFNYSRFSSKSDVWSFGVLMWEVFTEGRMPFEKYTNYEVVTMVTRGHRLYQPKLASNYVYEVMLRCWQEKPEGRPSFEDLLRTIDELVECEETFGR

[4] = target: D(1A) dopamine receptor (Homo sapiens) (UniProt P21728); details: Compound concentration 10.0 uM
[5] = target: Calcium/calmodulin-dependent protein kinase kinase 2 (Homo sapiens) (UniProt Q96RR4); details: Compound concentration 1000.0 nM
[6] = target: T3, Dual specificity protein kinase TTK (Homo sapiens) (UniProt P33981); details: Compound concentration 1000.0 nM
T3 sequence (whole entry): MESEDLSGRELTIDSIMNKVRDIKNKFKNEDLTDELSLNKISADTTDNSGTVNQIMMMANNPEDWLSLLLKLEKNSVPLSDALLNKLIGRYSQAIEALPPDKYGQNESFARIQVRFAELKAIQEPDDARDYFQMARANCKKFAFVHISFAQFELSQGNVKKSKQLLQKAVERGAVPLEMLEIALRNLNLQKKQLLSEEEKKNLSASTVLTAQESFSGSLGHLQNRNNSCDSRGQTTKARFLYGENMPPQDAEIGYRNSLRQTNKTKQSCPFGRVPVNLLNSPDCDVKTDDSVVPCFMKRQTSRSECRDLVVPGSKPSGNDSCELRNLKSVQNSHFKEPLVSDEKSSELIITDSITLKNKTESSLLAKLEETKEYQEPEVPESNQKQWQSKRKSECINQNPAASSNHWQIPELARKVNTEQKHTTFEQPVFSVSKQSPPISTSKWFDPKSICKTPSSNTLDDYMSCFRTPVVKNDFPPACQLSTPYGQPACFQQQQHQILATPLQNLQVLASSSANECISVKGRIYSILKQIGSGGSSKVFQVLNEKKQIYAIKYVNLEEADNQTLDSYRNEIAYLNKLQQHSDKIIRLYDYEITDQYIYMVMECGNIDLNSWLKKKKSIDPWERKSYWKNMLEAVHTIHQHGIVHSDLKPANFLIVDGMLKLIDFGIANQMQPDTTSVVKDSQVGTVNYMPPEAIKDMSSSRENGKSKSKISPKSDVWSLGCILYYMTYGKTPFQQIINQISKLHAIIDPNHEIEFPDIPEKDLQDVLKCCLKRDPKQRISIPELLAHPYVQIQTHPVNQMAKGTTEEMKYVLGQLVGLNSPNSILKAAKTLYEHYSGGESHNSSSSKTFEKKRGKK

[7] = target: Calcium/calmodulin-dependent protein kinase type II subunit alpha (Homo sapiens) (UniProt Q9UQM7); details: Compound concentration 1000.0 nM
[8] = target: Phosphatidylinositol 3-kinase catalytic subunit type 3 (Homo sapiens) (UniProt Q8NEB9); details: Compound concentration 1000.0 nM
[9] = target: T4, Testis-specific serine/threonine-protein kinase 3 (Homo sapiens) (UniProt Q96PN8); details: Compound concentration 1000.0 nM
T4 sequence (whole entry): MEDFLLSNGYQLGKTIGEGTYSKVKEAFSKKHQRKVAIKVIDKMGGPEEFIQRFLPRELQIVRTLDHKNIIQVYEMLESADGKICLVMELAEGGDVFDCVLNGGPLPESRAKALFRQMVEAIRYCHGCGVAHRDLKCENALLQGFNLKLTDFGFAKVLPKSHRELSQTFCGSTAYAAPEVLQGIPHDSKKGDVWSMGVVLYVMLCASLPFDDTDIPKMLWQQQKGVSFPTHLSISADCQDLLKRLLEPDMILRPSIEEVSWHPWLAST

[10] = target: Mitogen-activated protein kinase kinase kinase kinase 1 (Homo sapiens) (UniProt Q92918); details: Compound concentration 1000.0 nM
Mitogen-activated protein kinase kinase kinase kinase 1 (Homo sapiens), sequence (Q92918 whole entry, looked up): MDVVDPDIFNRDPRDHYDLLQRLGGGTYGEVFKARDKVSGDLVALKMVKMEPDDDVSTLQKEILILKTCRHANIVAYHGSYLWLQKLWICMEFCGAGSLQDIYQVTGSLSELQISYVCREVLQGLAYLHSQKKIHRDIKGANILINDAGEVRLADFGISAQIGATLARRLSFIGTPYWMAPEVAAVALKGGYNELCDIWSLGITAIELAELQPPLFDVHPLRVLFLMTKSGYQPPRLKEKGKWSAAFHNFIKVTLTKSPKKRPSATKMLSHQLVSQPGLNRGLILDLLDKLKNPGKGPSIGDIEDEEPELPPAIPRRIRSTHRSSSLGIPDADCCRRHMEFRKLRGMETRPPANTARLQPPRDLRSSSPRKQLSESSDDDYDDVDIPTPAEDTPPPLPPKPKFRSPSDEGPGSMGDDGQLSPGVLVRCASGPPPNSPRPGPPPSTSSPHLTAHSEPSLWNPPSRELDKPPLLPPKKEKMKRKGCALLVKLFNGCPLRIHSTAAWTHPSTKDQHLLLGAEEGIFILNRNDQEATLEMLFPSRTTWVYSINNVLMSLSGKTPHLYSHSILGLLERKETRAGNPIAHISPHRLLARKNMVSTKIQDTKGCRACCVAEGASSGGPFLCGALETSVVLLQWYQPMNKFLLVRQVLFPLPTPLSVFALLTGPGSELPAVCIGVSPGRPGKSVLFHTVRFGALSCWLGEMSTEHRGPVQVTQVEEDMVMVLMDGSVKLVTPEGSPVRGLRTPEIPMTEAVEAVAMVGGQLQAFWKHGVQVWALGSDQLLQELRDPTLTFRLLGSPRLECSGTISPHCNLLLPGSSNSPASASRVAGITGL

Calcium/calmodulin-dependent protein kinase kinase 2 (Homo sapiens), sequence (Q96RR4 2-588 limits assumed): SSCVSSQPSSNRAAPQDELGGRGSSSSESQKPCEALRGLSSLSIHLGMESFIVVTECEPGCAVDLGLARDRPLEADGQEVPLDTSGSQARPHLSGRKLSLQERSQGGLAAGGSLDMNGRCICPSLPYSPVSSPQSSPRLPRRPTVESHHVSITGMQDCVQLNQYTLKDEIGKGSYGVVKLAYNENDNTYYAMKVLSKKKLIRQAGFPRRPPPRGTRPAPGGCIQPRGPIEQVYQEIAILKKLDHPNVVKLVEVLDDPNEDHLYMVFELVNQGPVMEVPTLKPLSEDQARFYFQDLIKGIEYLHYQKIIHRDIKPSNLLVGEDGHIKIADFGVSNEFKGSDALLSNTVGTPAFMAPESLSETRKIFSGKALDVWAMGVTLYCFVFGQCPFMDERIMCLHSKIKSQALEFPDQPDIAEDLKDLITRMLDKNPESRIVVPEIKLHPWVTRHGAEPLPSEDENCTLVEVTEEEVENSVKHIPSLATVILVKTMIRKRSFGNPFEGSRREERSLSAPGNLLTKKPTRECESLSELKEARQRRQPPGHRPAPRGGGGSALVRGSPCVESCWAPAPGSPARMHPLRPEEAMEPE
Phosphatidylinositol 3-kinase catalytic subunit type 3 (Homo sapiens), sequence (Q8NEB9 whole entry): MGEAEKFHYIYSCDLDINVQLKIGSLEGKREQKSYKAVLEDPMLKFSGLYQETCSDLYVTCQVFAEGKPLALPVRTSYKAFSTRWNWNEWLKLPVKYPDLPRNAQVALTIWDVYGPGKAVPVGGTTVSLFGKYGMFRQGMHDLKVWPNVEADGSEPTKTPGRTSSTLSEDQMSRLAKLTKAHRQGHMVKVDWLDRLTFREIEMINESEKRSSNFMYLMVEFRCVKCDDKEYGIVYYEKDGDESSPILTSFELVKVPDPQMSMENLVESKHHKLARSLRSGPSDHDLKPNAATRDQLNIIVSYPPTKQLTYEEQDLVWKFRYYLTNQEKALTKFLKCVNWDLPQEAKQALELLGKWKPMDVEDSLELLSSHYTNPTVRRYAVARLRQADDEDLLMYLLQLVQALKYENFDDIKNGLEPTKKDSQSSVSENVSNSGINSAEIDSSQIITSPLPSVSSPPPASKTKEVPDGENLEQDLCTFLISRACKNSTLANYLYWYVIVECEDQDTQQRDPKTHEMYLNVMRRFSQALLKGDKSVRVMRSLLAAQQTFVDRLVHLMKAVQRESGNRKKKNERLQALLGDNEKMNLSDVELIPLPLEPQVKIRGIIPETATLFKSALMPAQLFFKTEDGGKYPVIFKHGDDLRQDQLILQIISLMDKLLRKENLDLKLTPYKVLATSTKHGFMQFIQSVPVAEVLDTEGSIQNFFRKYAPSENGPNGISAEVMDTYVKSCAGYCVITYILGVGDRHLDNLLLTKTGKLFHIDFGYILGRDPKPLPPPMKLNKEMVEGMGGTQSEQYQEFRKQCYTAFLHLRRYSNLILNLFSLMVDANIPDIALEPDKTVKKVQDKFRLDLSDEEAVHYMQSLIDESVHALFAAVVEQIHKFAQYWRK
Hepatocyte growth factor receptor (Homo sapiens), sequence (P08581 whole entry): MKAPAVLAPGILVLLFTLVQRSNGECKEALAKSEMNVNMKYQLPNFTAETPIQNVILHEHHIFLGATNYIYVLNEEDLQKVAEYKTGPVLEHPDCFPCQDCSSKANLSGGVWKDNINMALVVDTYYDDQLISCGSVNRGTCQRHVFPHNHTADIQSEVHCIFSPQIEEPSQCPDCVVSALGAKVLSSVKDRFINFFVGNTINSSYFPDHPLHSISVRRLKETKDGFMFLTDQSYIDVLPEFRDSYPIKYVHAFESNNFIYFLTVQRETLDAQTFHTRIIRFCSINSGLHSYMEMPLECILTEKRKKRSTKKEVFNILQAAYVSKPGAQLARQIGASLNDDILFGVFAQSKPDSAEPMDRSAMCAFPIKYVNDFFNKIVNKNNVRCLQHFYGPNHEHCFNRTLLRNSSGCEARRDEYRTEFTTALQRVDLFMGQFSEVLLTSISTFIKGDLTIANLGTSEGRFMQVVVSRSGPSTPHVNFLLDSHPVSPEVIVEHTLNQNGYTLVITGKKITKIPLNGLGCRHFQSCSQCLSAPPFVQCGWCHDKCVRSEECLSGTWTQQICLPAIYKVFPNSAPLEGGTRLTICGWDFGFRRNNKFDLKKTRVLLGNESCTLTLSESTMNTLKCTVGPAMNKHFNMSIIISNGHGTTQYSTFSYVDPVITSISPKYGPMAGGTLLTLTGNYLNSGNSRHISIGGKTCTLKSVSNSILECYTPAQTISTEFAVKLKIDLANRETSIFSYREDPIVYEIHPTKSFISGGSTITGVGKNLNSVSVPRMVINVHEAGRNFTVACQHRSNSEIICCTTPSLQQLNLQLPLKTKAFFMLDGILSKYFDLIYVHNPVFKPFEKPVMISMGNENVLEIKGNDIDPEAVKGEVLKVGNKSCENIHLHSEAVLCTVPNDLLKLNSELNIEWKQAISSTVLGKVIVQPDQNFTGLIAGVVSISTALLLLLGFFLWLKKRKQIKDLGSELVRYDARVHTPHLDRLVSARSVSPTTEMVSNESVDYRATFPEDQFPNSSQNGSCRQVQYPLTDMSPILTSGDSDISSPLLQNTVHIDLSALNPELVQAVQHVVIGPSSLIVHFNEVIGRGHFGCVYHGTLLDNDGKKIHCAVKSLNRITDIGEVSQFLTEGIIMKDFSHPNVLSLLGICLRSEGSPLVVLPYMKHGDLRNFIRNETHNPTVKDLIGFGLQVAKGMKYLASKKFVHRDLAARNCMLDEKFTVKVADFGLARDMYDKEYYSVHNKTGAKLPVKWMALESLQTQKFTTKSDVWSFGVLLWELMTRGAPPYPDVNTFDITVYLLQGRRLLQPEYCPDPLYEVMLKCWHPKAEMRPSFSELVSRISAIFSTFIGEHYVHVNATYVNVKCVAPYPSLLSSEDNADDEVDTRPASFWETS
Calcium/calmodulin-dependent protein kinase type II subunit alpha (Homo sapiens), sequence (Q9UQM7 whole entry): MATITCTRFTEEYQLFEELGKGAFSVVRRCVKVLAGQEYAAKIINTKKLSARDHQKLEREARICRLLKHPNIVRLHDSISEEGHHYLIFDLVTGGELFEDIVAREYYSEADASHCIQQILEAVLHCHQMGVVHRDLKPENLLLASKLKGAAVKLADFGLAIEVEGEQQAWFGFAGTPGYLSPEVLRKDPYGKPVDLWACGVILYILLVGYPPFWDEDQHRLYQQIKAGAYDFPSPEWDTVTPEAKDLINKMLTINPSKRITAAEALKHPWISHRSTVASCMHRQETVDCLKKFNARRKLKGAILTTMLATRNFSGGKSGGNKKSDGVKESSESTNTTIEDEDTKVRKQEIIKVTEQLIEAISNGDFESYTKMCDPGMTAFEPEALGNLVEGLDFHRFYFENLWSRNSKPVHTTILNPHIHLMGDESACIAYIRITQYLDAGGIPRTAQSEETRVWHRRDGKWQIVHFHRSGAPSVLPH
D(1A) dopamine receptor (Homo sapiens), sequence (P21728 whole entry): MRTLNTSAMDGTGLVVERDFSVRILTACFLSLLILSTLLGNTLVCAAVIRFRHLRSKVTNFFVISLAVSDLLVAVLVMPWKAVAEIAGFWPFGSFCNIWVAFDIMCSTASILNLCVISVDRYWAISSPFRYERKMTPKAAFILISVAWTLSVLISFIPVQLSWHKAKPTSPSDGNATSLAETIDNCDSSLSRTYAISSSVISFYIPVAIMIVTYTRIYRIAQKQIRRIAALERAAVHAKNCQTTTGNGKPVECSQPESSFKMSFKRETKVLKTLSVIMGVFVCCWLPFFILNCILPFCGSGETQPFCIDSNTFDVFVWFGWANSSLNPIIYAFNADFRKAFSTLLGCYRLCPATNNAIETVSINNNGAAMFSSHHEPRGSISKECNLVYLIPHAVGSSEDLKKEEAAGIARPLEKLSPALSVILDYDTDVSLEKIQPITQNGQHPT

CN(C)C(=O)Cn1cc(-c2nc(C3(c4ccc(-c5cnc(N)nc5)cc4)CC3)no2)cn1 [BI 0153]
inactive: inhibition [1] 13.9% | residual activity [2] 73% | residual activity [3] 93% | inhibition [4] -6.69% | residual activity [5] 100% | residual activity [6] 100% | residual activity [7] 100% | residual activity [8] 96% | residual activity [9] 97% | residual activity [10] 81%

CN(C)C(=O)Cn1cc(-c2nc([C@@](C)(c3ccc(-c4cnc(N)nc4)cc3)C3CC3)no2)cn1 [BI 665915]
inactive: inhibition [1] 4.68% | residual activity [2] 100% | residual activity [3] 93% | inhibition [4] 4.55% | residual activity [5] 100% | residual activity [6] 100% | residual activity [7] 96% | residual activity [8] 89% | residual activity [9] 68% | residual activity [10] 100%

Reference: ChEMBL document CHEMBL4507276 (2021)
